# Reference: US20260232666A1, “COMPOSITIONS AND METHODS FOR INHIBITION OF RAS” (TheRas, Inc., priority 2023, published 2026)
# Legend:
# Type in all cases: binding
# Conditions in all cases: 15 minutes reaction time point
# [1] = molecular target: T1, GppNHp-loaded KRAS4b (amino acids 1-169) G12C/C118S protein (Homo sapiens, UniProt P01116, C118S/G12C); assay: Covalent cysteine 12 modification by MALDI-TOF MS, GppNHp-loaded KRAS G12C
# T1 construct: KRAS4b (amino acids 1-169) G12C/C118S protein; made in house
# Summary of the method: (§1)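 Percent modification comes from MALDI-TOF peak heights: the compound-adduct peak divided by the sum of the remaining-protein and adduct peaks. Reactions contained 1 μM protein and compound at a 1:2.5 ratio, in pH 7.3 HEPES buffer with NaCl and MgCl2, held 15 min at room temperature.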
# [2] = molecular target: T2, GTP-loaded KRAS4b (amino acids 1-169) G12C/C118S protein (Homo sapiens, UniProt P01116, C118S/G12C); assay: Covalent cysteine 12 modification by MALDI-TOF MS, GTP-loaded KRAS G12C
# T2 construct: KRAS4b (amino acids 1-169) G12C/C118S protein; made in house
# Summary of the method: as §1
# [3] = molecular target: T3, GDP-loaded KRAS4b (amino acids 1-169) G12C/C118S protein (Homo sapiens, UniProt P01116, C118S/G12C); assay: Covalent cysteine 12 modification by MALDI-TOF MS, GDP-loaded KRAS G12C
# T3 construct: KRAS4b (amino acids 1-169) G12C/C118S protein; made in house
# Summary of the method: as §1
GppNHp-KRAS G12C percent of modification [1],GTP-KRAS G12C percent of modification [2],GDP-KRAS G12C percent of modification [3],SMILES
D (percent of modification <10%),D (percent of modification <10%),D (percent of modification <10%),"C=CC(=O)N1CC[C@@H](N(C)c2nc(OC[C@H]3C[C@@H](OC)CN3C)nc3c(F)c(-c4ccc(F)c5sc(N)c(C#N)c45)c(C(F)(F)F)cc23)[C@H]1C (single isomer, unassigned) [Compound 175]"
B (50≤percent of modification <70%),C (10%≤percent of modification <50%),B (50≤percent of modification <70%),C=CC(=O)N1CC[C@@H](N(C)c2nc(OC[C@@]34CCCN3C[C@H](F)C4)nc3c(F)c(-c4ccc(F)c5sc(N)c(C#N)c45)c(C(F)(F)F)cc23)[C@H]1CC [Compound 18]
C (10%≤percent of modification <50%),C (10%≤percent of modification <50%),C (10%≤percent of modification <50%),C=CC(=O)N1CC[C@@H](N(C)c2nc(OC[C@@]34CCCN3C[C@H](F)C4)nc3c(F)c(-c4ccc(F)c5sc(N)c(C#N)c45)c(Cl)cc23)[C@H]1CC [Compound 19]
C (10%≤percent of modification <50%),C (10%≤percent of modification <50%),C (10%≤percent of modification <50%),C=CC(=O)N1CC[C@@H](N(CC)c2nc(OC[C@@]34CCCN3C[C@H](F)C4)nc3c(F)c(-c4ccc(F)c5sc(N)c(C#N)c45)c(Cl)cc23)[C@H]1CC [Compound 20]
D (percent of modification <10%),D (percent of modification <10%),A (percent of modification ≥70%),C=CC(=O)N1CC[C@@H](N(C)c2nc(OC[C@@]34CCCN3C[C@H](F)C4)nc3cc(-c4ccc(F)c5sc(N)c(C#N)c45)c(F)cc23)[C@@H]1CC [Compound 22]
C (10%≤percent of modification <50%),C (10%≤percent of modification <50%),A (percent of modification ≥70%),C=CC(=O)N1CC[C@@H](N(C)c2nc(OC[C@@]34CCCN3C[C@H](F)C4)nc3c(F)c(-c4ccc(F)c5sc(N)c(C#N)c45)ccc23)[C@@H]1CC [Compound 23]
C (10%≤percent of modification <50%),D (percent of modification <10%),A (percent of modification ≥70%),C=CC(=O)N1CC[C@@H](N(C)c2nc(OC[C@@]34CCCN3C[C@H](F)C4)nc3cc(-c4ccc(F)c5sc(N)c(C#N)c45)c(C#N)cc23)[C@@H]1CC [Compound 24]
A (percent of modification ≥70%),A (percent of modification ≥70%),A (percent of modification ≥70%),C=CC(=O)N1CC[C@@H](N(CC)c2nc(OC[C@@]34CCCN3C[C@H](F)C4)nc3cc(-c4ccc(F)c5sc(N)c(C#N)c45)c(C#N)cc23)[C@H]1C [Compound 25]
A (percent of modification ≥70%),B (50≤percent of modification <70%),A (percent of modification ≥70%),C=CC(=O)N1CC[C@@H](N(C)c2nc(OC[C@@]34CCCN3C[C@H](F)C4)nc3cc(-c4ccc(F)c5sc(N)c(C#N)c45)c(C#N)cc23)[C@@H]1C [Compound 27]
A (percent of modification ≥70%),A (percent of modification ≥70%),A (percent of modification ≥70%),C=CC(=O)N1CC[C@@H](N(C)c2nc(OC[C@@]34CCCN3C[C@H](F)C4)nc3cc(-c4ccc(F)c5sc(N)c(C#N)c45)c(F)cc23)[C@H]1CC [Compound 29]
A (percent of modification ≥70%),C (10%≤percent of modification <50%),A (percent of modification ≥70%),C=CC(=O)N1CC[C@@H](N(C)c2nc(OC[C@@]34CCCN3C[C@H](F)C4)nc3cc(-c4ccc(F)c5sc(N)c(C#N)c45)c(F)cc23)[C@@H]1C [Compound 31]
A (percent of modification ≥70%),B (50≤percent of modification <70%),B (50≤percent of modification <70%),C=CC(=O)N1CC[C@@H](N(C)c2nc(OC[C@@H]3C[C@@H](OC)CN3C)nc3c(F)c(-c4ccc(F)c5sc(N)c(C#N)c45)c(C(F)(F)F)cc23)[C@@H]1C [Compound 33]
D (percent of modification <10%),D (percent of modification <10%),D (percent of modification <10%),C=CC(=O)N1C[C@H]2CC[C@@H]1CN2c1nc(OC[C@@]23CCCN2C[C@H](F)C3)nc2c(F)c(-c3ccc(F)c4sc(N)c(C#N)c34)c(C(F)(F)F)cc12 [Compound 36]

# Second part, the compound before the results:
SMILES,GppNHp-KRAS G12C percent of modification [1],GTP-KRAS G12C percent of modification [2],GDP-KRAS G12C percent of modification [3]
C=CC(=O)N1CC[C@@H](N(C)c2nc(OC[C@@]34CCCN3C[C@H](F)C4)nc3c(F)c(-c4ccc(F)c5sc(N)c(C#N)c45)ccc23)[C@H]1CC [Compound 4],A (percent of modification ≥70%),A (percent of modification ≥70%),A (percent of modification ≥70%)
C=CC(=O)N1CCC(N(C)c2nc(OC[C@@]34CCCN3C[C@H](F)C4)nc3cc(-c4ccc(F)c5sc(N)c(C#N)c45)c(C#N)cc23)[C@H]1CC (stereo partly drawn) [Compound 7],A (percent of modification ≥70%),A (percent of modification ≥70%),A (percent of modification ≥70%)
C=CC(=O)N1CCC(N(CC)c2nc(OC[C@@]34CCCN3C[C@H](F)C4)nc3c(F)c(-c4ccc(F)c5sc(N)c(C#N)c45)c(C(F)(F)F)cc23)[C@H]1CC (stereo partly drawn) [Compound 8],C (10%≤percent of modification <50%),C (10%≤percent of modification <50%),C (10%≤percent of modification <50%)
C=CC(=O)N1CCC(N(C)c2nc(OC[C@@H]3CCCN3C)nc3c(F)c(-c4nc(N)cc(C)c4C(F)(F)F)c(Cl)cc23)[C@H]1C (stereo partly drawn) [Compound 9],C (10%≤percent of modification <50%),C (10%≤percent of modification <50%),B (50≤percent of modification <70%)
C=CC(=O)N1CCC(N(C)c2nc(OC[C@@]34CCCN3C[C@H](F)C4)nc3c(F)c(-c4nc(N)cc(C)c4C(F)(F)F)c(Cl)cc23)[C@H]1C (stereo partly drawn) [Compound 10],B (50≤percent of modification <70%),B (50≤percent of modification <70%),A (percent of modification ≥70%)
C=CC(=O)N1CCC(N(CC)c2nc(OC[C@@]34CCCN3C[C@H](F)C4)nc3c(F)c(-c4ccc(F)c5sc(N)c(C#N)c45)ccc23)[C@H]1CC (stereo partly drawn) [Compound 11],A (percent of modification ≥70%),A (percent of modification ≥70%),A (percent of modification ≥70%)
C=CC(=O)N1CCC(N(CC)c2nc(OC[C@@]34CCCN3C[C@H](F)C4)nc3c(F)c(-c4ccc(F)c5sc(N)c(C#N)c45)c(Cl)cc23)[C@H]1CC (stereo partly drawn) [Compound 12],C (10%≤percent of modification <50%),C (10%≤percent of modification <50%),C (10%≤percent of modification <50%)
C=CC(=O)N1CCC(N(CC)c2nc(OC[C@@]34CCCN3C[C@H](F)C4)nc3cc(-c4ccc(F)c5sc(N)c(C#N)c45)c(C#N)cc23)[C@H]1CC (stereo partly drawn) [Compound 14],A (percent of modification ≥70%),B (50≤percent of modification <70%),A (percent of modification ≥70%)
"C=CC(=O)N1CC[C@@H](N(CC)c2nc(OC[C@@]34CCCN3C[C@H](F)C4)nc3c(F)c(-c4ccc(F)c5sc(N)c(C#N)c45)ccc23)[C@H]1C [Compound 17, 4-(4-(((2R,3R)-1-acryloyl-2-methylpyrrolidin-3-yl)(ethyl)amino)-8-fluoro-2-(((2R,7aS)-2-fluorotetrahydro-1H-pyrrolizin-7a(5H)-yl)methoxy)quinazolin-7-yl)-2-amino-7-fluorobenzo[b]thiophene-3-carbonitrile]",A (percent of modification ≥70%),A (percent of modification ≥70%),A (percent of modification ≥70%)
C=CC(=O)N1C2CCC1CN(c1nc(OC[C@@]34CCCN3C[C@H](F)C4)nc3c(F)c(-c4ccc(F)c5sc(N)c(C#N)c45)c(C(F)(F)F)cc13)C2 [Compound 34],C (10%≤percent of modification <50%),D (percent of modification <10%),B (50≤percent of modification <70%)
C=CC(=O)N1C2CC1CN(c1nc(OC[C@@]34CCCN3C[C@H](F)C4)nc3c(F)c(-c4ccc(F)c5sc(N)c(C#N)c45)c(C(F)(F)F)cc13)C2 [Compound 35],C (10%≤percent of modification <50%),C (10%≤percent of modification <50%),A (percent of modification ≥70%)
